In US11254686B1 (Corvus Pharmaceuticals, Inc., priority 2017, dated 2022):
pIC50: −log10 of the molar value.

Assays:
[1] = molecular target: adenosine A2B receptor (Homo sapiens (Human), UniProt P29275); assay: Adenosine receptor activity assay (Table 1), A2B activity; type: biochemical; conditions: for Ratio: A2A activity to A2B activity (A2A/A2B); for pIC50: read-out: Ave A2B cAMP IC50
[2] = molecular target: adenosine A2A receptor (Homo sapiens (Human), UniProt P29274); assay: Adenosine receptor activity assay (Table 1), A2A activity; type: biochemical; conditions: read-out: Ave A2A cAMP IC50
Chain of adenosine A2A receptor (P29274 whole entry): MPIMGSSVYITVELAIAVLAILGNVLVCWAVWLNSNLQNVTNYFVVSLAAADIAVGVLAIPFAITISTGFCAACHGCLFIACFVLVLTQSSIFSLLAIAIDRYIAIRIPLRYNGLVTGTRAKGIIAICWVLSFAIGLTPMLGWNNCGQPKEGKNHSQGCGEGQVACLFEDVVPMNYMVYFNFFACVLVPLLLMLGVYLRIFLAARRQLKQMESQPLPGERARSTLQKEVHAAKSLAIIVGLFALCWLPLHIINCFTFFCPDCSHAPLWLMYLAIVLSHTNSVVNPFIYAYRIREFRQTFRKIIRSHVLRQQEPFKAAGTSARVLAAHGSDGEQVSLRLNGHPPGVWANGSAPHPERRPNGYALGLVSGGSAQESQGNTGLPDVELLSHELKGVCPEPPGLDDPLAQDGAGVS

Chain of adenosine A2B receptor (P29275 whole entry): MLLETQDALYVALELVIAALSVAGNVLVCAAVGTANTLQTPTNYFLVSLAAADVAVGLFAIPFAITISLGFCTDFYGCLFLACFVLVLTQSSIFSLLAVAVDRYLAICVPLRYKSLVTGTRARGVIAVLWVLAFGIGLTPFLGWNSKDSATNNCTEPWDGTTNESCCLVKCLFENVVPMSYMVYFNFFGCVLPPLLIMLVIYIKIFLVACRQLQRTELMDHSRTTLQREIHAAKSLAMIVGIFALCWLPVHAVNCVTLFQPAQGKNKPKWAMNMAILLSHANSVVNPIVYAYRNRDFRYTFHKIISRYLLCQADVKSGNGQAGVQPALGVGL

Compound	Ratio [1]	pIC50 [1]	pIC50 [2]
2-(((5-Fluoropyridin-3-yl)methyl)amino)-N-((tetrahydro-2H-pyran-4-yl)methyl)thieno[3,2-d]pyrimidine-4-carboxamide [Example Z219]	8.45	7.30 to 8.00	6.30 to 7.00
C[C@H](NC(=O)c1nc(N[C@@H](C)c2cccnc2)nc2ccsc12)c1cccnc1 [Example Z1, N—((S)-1-(Pyridin-3-yl)ethyl)-2-(((S)-1-(pyridin-3-yl)ethyl)amino)thieno[3,2-d]pyrimidine-4-carboxamide]	0.55	6.30 to 7.00	7.00 to 7.30
C[C@H](Nc1nc(C(=O)N2CCC(C)(C)C2)c2sccc2n1)c1cccnc1 [Example Z3, (S)-(3,3-Dimethylpyrrolidin-1-yl)(2-((1-(pyridin-3-yl)ethyl)amino)thieno[3,2-d]pyrimidin-4-yl)methanone]	1.26	6.30 to 7.00	6.30 to 7.00
O=C(NCc1cncnc1)c1nc(NCc2cncnc2)nc2ccsc12 [Example Z4, N-(Pyrimidin-5-ylmethyl)-2-((pyrimidin-5-ylmethyl)amino)thieno[3,2-d]pyrimidine-4-carboxamide]	0.95	< 6.30	< 6.30
O=C(c1nc(NCc2cncnc2)nc2ccsc12)N1CCCC1 [Example Z5, (2-((Pyrimidin-5-ylmethyl)amino)thieno[3,2-d]pyrimidin-4-yl)(pyrrolidin-1-yl)methanone]	18.06	6.30 to 7.00	< 6.30
C[C@H](Nc1nc(C(=O)NCc2cncnc2)c2sccc2n1)c1cccnc1 [Example Z6, (S)-2-((1-(Pyridin-3-yl)ethyl)amino)-N-(pyrimidin-5-ylmethyl)thieno[3,2-d]pyrimidine-4-carboxamide]	0.49	< 6.30	< 6.30
CC1(C)CCN(C(=O)c2nc(NCc3cncnc3)nc3ccsc23)C1 [Example Z7, (3,3-Dimethylpyrrolidin-1-yl)(2-((pyrimidin-5-ylmethyl)amino)thieno[3,2-d]pyrimidin-4-yl)methanone]	0.57	< 6.30	< 6.30
C[C@H](Nc1nc(C(=O)N2CCOCC2)c2sccc2n1)c1cccnc1 [Example Z11, (S)-Morpholino(2-((1-(pyridin-3-yl)ethyl)amino)thieno[3,2-d]pyrimidin-4-yl)methanone]	4.88	< 6.30	< 6.30
COc1ccc(CNC(=O)c2nc(NCc3ccc(OC)nc3)nc3ccsc23)cn1 [Example Z12, N-((6-Methoxypyridin-3-yl)methyl)-2-(((6-methoxypyridin-3-yl)methyl)amino)thieno[3,2-d]pyrimidine-4-carboxamide]	0.15	< 6.30	7.00 to 7.30
C[C@H](Nc1nc(C(=O)N2CC3(COC3)C2)c2sccc2n1)c1cccnc1 [Example Z14, (S)-(2-((1-(Pyridin-3-yl)ethyl)amino)thieno[3,2-d]pyrimidin-4-yl)(2-oxa-6-azaspiro[3.3]heptan-6-yl)methanone]	1.35	6.30 to 7.00	6.30 to 7.00
O=C(NCc1cncc(F)c1)c1nc(NCc2cncc(F)c2)nc2ccsc12 [Example Z15, N-((5-Fluoropyridin-3-yl)methyl)-2-(((5-fluoropyridin-3-yl)methyl)amino)thieno[3,2-d]pyrimidine-4-carboxamide]	9.43	6.30 to 7.00	< 6.30
COc1ccc(CNc2nc(C(=O)N3CCCC3)c3sccc3n2)cn1 [Example Z17, (2-(((6-Methoxypyridin-3-yl)methyl)amino)thieno[3,2-d]pyrimidin-4-yl)(pyrrolidin-1-yl)methanone]	0.19	6.30 to 7.00	7.00 to 7.30
C[C@H](Nc1nc(C(=O)NCc2cncc(F)c2)c2sccc2n1)c1cccnc1 [Example Z20, (S)—N-((5-Fluoropyridin-3-yl)methyl)-2-((1-(pyridin-3-yl)ethyl)amino)thieno[3,2-d]pyrimidine-4-carboxamide]	0.62	6.30 to 7.00	6.30 to 7.00
CN(C(=O)c1nc(NCc2cncc(F)c2)nc2ccsc12)C1CCC(C)(C)C1 (stereo not shown) [Example Z22, N-(3,3-Dimethylcyclopentyl)-2-(((5-fluoropyridin-3-yl)methyl)amino)-N-methylthieno[3,2-d]pyrimidine-4-carboxamide]	7.49	< 6.30	< 6.30
CCC(NC(=O)c1nc(NC(CC)c2cccnc2)nc2ccsc12)c1cccnc1 (stereo not shown) [Example Z23, N-(1-(Pyridin-3-yl)propyl)-2-((1-(pyridin-3-yl)propyl)amino)thieno[3,2-d]pyrimidine-4-carboxamide]	5.63	< 6.30	< 6.30
CCC(NC(=O)c1nc(N[C@@H](C)c2cccnc2)nc2ccsc12)c1cccnc1 (stereo partly drawn) [Example Z24, 2-(((S)-1-(Pyridin-3-yl)ethyl)amino)-N-(1-(pyridin-3-yl)propyl)thieno[3,2-d]pyrimidine-4-carboxamide]	2.92	6.30 to 7.00	< 6.30
CCC(Nc1nc(C(=O)N2CCCC2)c2sccc2n1)c1cccnc1 (stereo not shown) [Example Z25, (2-((1-(Pyridin-3-yl)propyl)amino)thieno[3,2-d]pyrimidin-4-yl)(pyrrolidin-1-yl)methanone]	–	7.30 to 8.00	6.30 to 7.00
CCC(Nc1nc(C(=O)NCc2ccc(OC)nc2)c2sccc2n1)c1cccnc1 (stereo not shown) [Example Z83, N-((6-Methoxypyridin-3-yl)methyl)-2-((1-(pyridin-3-yl)propyl)amino)thieno[3,2-d]pyrimidine-4-carboxamide]	–	–	6.30 to 7.00
COc1cncc(CNC(=O)c2nc(N[C@@H](C)c3ccccn3)nc3ccsc23)c1 [Example Z110, (S)—N-((5-Methoxypyridin-3-yl)methyl)-2-((1-(pyridin-2-yl)ethyl)amino)thieno[3,2-d]pyrimidine-4-carboxamide]	3.23	7.00 to 7.30	–
COCC(Nc1nc(C(=O)N2CCC2)c2sccc2n1)c1cccnc1 (stereo not shown) [Example Z126, Azetidin-1-yl(2-((2-methoxy-1-(pyridin-3-yl)ethyl)amino)thieno[3,2-d]pyrimidin-4-yl)methanone]	–	7.30 to 8.00	–
C[C@H](Nc1nc(C(=O)N2CC[C@@H](S(C)(=O)=O)C2)c2sccc2n1)c1ccccn1 [Example Z256]	–	6.30 to 7.00	–
C[C@H](Nc1nc(C(=O)N[C@H]2CC[C@@H](O)C2)c2sccc2n1)c1ccccn1 [Example Z332, N-((1S,3R)-3-Hydroxycyclopentyl)-2-(((S)-1-(pyridin-2-yl)ethyl)amino)thieno[3,2-d]pyrimidine-4-carboxamide]	–	–	6.30 to 7.00
C[C@H](Nc1nc(C(=O)NCCc2ccccc2O)c2sccc2n1)c1cncc(F)c1 [Example Z448, (S)-2-((1-(5-fluoropyridin-3-yl)ethyl)amino)-N-(2-hydroxyphen-ethyl)thieno[3,2-d]pyrimidine-4-carboxamide]	–	–	6.30 to 7.00
CNCC1CN(C(=O)c2nc(N[C@@H](C)c3cncc(F)c3)nc3ccsc23)C1 [Example Z544, (S)-(2-((1-(5-Fluoropyridin-3-yl)ethyl)amino)thieno[3,2-d]pyrimidin-4-yl)(3-((methylamino)methyl)azetidin-1-yl)methanone]	–	6.30 to 7.00	–
